Patent US8304418B2, “Pyrazolopyrimidinone kinase inhibitor” (Agennix AG, priority 2007, dated 2012)
Where “and” joins values, the source holds several entries; their conditions need not be identical. Identical values can stand only once. Like-named read-outs stand apart in the source and are kept apart here.

How the values were obtained:
[1] = PAMPA permeability assay at pH 7.4; format: in vitro ADME
Method: (§1) The assays used for determining the properties of the kinase inhibitors were performed in accordance with standard procedures well known to those skilled in the art. For example, assays for determining inhibitory activity on CDKs or in cellular assays are described in WO 00/218962, WO 2005/026129, and WO 2005/063765. Solubility assays at pH 7.4 were essentially performed as described by Avdeef, A. in Pharmacokinetic Optimization in Drug Research; Testa, B.; van de Waterbeemd, H.; Folkers, G.; Guy, R. Eds.; Wiley-VHC: Zurich, 2001; pp 305-326. PAMPA permeability assays at pH 7.4 were essentially performed as described in Kansy et al., J. Med. Chem. 41: 1007-10, 1998.

panel of non-CDK kinases = experiment: Inhibitory activity against a panel of non-CDK kinases; format: biochemical
Method: as §1

CDK9 = CDK9 (Homo sapiens, UniProt P50750); experiment: Biochemical CDK9 inhibition assay; settings: read-out: enzymatic IC50 of CDK9 activity
CDK9, sequence (P50750 whole entry): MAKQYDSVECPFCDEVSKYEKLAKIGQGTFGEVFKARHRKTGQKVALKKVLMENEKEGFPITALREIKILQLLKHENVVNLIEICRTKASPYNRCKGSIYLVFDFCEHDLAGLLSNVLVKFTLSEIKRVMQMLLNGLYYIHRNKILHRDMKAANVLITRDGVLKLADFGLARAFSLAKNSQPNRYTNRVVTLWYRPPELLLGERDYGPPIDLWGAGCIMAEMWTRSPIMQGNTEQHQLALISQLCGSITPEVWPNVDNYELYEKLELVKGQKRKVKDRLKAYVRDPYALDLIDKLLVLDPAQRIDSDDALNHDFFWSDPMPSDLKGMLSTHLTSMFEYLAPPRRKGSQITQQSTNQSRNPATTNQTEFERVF
CDK9, sequence (O60563 whole entry partner): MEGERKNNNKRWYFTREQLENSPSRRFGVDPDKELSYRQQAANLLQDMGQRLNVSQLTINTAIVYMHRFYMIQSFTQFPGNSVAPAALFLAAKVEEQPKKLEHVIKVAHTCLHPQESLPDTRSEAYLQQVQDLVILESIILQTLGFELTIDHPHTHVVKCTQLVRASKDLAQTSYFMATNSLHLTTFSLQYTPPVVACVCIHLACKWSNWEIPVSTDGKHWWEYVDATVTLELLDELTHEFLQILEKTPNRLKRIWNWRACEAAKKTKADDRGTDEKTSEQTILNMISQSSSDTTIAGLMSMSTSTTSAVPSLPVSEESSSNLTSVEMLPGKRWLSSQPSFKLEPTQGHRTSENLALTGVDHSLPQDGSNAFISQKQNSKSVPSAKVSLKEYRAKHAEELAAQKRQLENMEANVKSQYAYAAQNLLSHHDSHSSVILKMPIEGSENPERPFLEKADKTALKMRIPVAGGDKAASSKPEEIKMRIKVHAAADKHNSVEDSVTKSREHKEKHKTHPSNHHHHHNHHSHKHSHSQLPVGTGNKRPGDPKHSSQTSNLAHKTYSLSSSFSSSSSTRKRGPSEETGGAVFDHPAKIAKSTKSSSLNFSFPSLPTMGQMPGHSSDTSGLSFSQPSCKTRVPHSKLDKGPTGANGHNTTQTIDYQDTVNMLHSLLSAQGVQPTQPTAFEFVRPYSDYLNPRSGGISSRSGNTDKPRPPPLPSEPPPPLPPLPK
Method: as §1

CDK1 = CDK1 (Homo sapiens, UniProt P06493); experiment: Biochemical CDK1 inhibition assay
CDK1, sequence (P06493 whole entry): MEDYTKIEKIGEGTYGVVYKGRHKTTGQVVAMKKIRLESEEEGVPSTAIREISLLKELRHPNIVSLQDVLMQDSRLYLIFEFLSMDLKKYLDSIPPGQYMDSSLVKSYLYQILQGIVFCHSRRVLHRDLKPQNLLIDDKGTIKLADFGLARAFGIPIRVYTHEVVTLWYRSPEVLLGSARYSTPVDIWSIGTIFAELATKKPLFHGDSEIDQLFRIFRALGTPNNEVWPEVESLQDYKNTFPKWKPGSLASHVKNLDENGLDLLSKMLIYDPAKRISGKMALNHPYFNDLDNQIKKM
CDK1, sequence (P14635 whole entry partner): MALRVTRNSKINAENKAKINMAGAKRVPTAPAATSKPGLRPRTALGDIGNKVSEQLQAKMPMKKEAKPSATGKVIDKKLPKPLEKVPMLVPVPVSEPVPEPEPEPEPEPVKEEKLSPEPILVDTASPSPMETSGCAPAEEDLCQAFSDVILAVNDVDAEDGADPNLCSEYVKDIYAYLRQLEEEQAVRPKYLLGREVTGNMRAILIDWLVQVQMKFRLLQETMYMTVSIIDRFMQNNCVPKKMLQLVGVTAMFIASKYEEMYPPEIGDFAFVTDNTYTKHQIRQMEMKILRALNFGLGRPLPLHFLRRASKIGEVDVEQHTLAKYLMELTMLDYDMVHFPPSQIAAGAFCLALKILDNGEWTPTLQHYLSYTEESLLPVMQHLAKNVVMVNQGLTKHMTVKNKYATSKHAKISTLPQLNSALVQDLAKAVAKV
Method: as §1

CDK6 = CDK6 (Homo sapiens, UniProt Q00534); experiment: Biochemical CDK6 inhibition assay
CDK6, sequence (Q00534 whole entry): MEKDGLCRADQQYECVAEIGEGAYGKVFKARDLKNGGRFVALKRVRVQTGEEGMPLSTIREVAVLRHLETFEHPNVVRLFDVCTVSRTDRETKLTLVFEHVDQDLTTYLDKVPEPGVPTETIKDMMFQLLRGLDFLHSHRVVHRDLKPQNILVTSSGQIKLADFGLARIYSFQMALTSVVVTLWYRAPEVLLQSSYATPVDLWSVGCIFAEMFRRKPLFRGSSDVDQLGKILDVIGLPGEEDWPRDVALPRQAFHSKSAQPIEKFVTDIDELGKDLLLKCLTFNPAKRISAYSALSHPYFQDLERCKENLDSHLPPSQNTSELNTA
CDK6, sequence (P30281 whole entry partner): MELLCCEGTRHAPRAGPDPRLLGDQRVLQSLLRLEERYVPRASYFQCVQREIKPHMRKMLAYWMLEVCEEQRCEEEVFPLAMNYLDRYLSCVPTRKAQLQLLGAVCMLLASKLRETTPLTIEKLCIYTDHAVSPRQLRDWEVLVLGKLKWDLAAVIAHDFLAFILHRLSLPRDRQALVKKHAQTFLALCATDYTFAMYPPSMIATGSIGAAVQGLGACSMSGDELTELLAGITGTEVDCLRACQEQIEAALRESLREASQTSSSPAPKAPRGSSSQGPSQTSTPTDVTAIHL
Method: as §1

[2] = test system: CDK9-specific phosphorylation of RNA polymerase II (RNAPII) on serine 2; experiment: In-cell RNAPII phosphorylation (immunoblot); format: cell-based, human; settings: Homo sapiens, 3 h
Method: (§2) The following cancer cell lines were investigated in the course of these studies: A2780 (ovarian), HCT116 (colon), RPMI8226 (myeloma), SKMel28 (melanoma), Colo205 (colorectal), MDA-MB-435 (melanoma), MDA-MB-453 (breast, carcinoma), MDA-MB-468 (breast, adenocarcinoma), A549 (lung), Raji (lymphoma, Burkitt). Cell lines were obtained from public repositories.
CDK9-specific phosphorylation of RNA polymerase II (RNAPII) on Serine 2 (Ser2). Asynchronous cells were treated with an appropriate concentration of test compound or DMSO as a control. After 3 h incubation (37° C./5% CO2) cells were lysed with CLB-1 lysis buffer (Zeptosense, Switzerland), the lysate was cleared by centrifugation (10 min, 13000 rpm, RT) and subjected to SDS-PAGE. Total protein was blotted on PVDF membranes and analyzed using antibodies against S2-phosphorylated RNAPII (H5; Covance) or total RNAPII (N-20; Santa Cruz) as an expression control. Visualization was conducted using secondary Alexa680- or IR800-coupled antibodies (Molecular Probes) against mouse or rabbit Fc tails on the Odyssey-system (Licor). Specific bands were quantified and IC50 values of inhibition of RNAPII phosphorylation were estimated.

[3] = test system: CDK1-dependent Eg-5 phosphorylation on threonine 927; experiment: In-cell Eg-5 phosphorylation (immunoblot); format: cell-based, human; settings: Homo sapiens, 1 h
Source text: (§3) This set of assays represents CDKs involved in cell cycle progression (CDK1, 4/6), and the “regulatory CDK” (CDK9) which is involved in transcriptional regulation.
as §2
CDK1-dependent Eg-5 phosphorylation on threonine 927 (Thr927phos). Thr927phos was investigated by arresting cells over night in G2/M phase with 25 ng/ml nocodazole (optimized final concentration) followed by treatment with DMSO as control or an appropriate concentration of test compound for 1 hour. Detached as well as adherent cells were collected and lysed with CLB-1 lysis buffer. the lysate cleared by centrifugation and subjected to SDS-PAGE. The proteins were blotted on PVDF membranes and subsequently analyzed by antibodies against total Eg-5 (Becton Dickinson) and Eg-5 Thr927phos (Bio legend). Visualization and estimation of IC50 was conducted as above.

[4] = test system: CDK4/6-specific phosphorylation of Rb on serine 780; experiment: In-cell Rb phosphorylation (immunoblot); format: cell-based, human; settings: Homo sapiens, read-out: IC50 (uM) - Rb-5 phosphorylation
Source text: as §3, §2
CDK4/6-specific phosphorylation of Rb on serine 780 (Ser780phos). Asynchronous growing cells were treated with an appropriate concentration of test compound or DMSO for 1 hour. Proteins were extracted using the AllPrep RNA/Protein kit according to the manufacturer's recommendations (Qiagen, Germany). Rb was immunoprecipitated over night using Ab05 antibody (Oncogene Inc.). Proteins were separated by SDS-PAGE, blotted to PVDF membranes and analyzed with antibodies against total (sc-102; Santa Cruz) or Ser780-phosphorylated Rb proteins (Cell Signalling). Visualization and quantification was performed as above.

HCT116 = experiment: Cell proliferation, HCT116; format: cell-based; settings: Homo sapiens, HCT-116
Method: as §1
(§4) When compared to IC50s of cellular proliferation by compound I, (as determined by the methods described earlier), the corresponding IC50 for cellular inhibition of CDK9-dependent RNAPII phosphorylation is approximately similar.

Sk-mel-28 = experiment: Cell proliferation, Sk-mel-28; format: cell-based; settings: Homo sapiens
Method: as §1, §4

Colo205 = experiment: Cell proliferation, Colo205; format: cell-based; settings: Homo sapiens, COLO 205
Method: as §1, §4

MDA-MB-468 = experiment: Cell proliferation, MDA-MB-468; format: cell-based; settings: Homo sapiens
Method: as §1, §4

H460 NSCLC = settings: H460; for Max % TGI (d): day 13
Method: (§5) Xenograft Tumor-Models: 100 athymic nu/nu female mice (6-8 weeks old) from CRL were allowed to acclimate for 4 days. […] The 3rd passage of cells with approximate 90% confluence was used for these experiments. Briefly, on Day 0, mice were inoculated with 0.1 ml (total 5×10^6 cells) of the respective cell-type as a cell suspension (50×10^6 cells/ml) by subcutaneous injection into the fat pad area near the mammary gland under light anesthesia. When the average tumor weight in all mice reached over 100 mg (day 10), 80 animals with an average tumor size of 130 mg were selected and were randomly divided into 8 groups.
(§6) A 20 G gavage needle was used for the oral treatment.
(§7) Tumor growth and body weight were monitored and recorded three times a week. Tumors were measured by determining the length and width of the tumor with a digital caliper. Tumor weight was estimated using the following formula: Tumor Weight (mg)=(w^2×1)×0.52 where w=width and l=length in mm of the tumor.
(§8) Experimental treatment may cause partial regression (PR) or complete regression (CR) of tumors. PR is defined when the tumor size is 50% or less than the starting (day 1) size but greater than 0.0 mg for three consecutive measurements during the course of the study. CR occurs when there is no measurable tumor mass for three consecutive measurements. Cures are defined when CR are maintained until the completion of the experiment.
(§9) Mice were sacrificed when their tumors reached the 1000 mm^3 endpoint volume. Treatment efficacy was determined as Log Cell Kill (LCK).
(§10) Toxic deaths are defined as deaths caused by compound treatment and not by advanced disease state. […] Non-tumor related deaths after this point are recorded, but not considered toxic deaths.
(§11) Briefly, the empirical distributions of T and Td were derived from B=1000 realisations of random selection of n individual animals with replacement from the set i=1, . . . , n of the appropriate group of mice containing n evaluable animals, estimating the mean tumor size for such selection of animals for each time-point, and linear regression analysis from a semi-log plot of such averages against time. Dead mice and mice with no measurable tumor size were treated as missing data and were ignored when calculating the average.

[5] = test system: HCT116 colon carcinoma cells
Method: as §5, §6, §7, §8, §9, §10, §11

## CC(C)c1nn(-c2c(Cl)cncc2Cl)c2nc(Cc3ccc(CN4CCCC4)c(O)c3)[nH]c(=O)c12 [Compound I, 1-(3,5-dichloropyridin-4-yl)-6-(3-hydroxy-4-pyrrolidinomethyl-phenyl)methyl-3-isopropyl-pyrazolo[3,4-d]pyrimidin-4-one]
[1]
  permeability in a PAMPA assay: about 70%
Panel of non-CDK kinases
  inhibitory activity against non-CDK kinases: low inhibitory activity
CDK9
  IC50: 0.001 to 0.01 µM
CDK1
  IC50: 0.01 to 0.05 µM
CDK6
  IC50: 0.01 to 0.05 µM
[2]; COLO 205, Colo205 cells
  IC50: ~0.1 µM
[2]; HCT-116, HCT116 cells
  IC50: ~0.1 µM
[2]; RPMI-8226, RPMI8226 cells
  IC50: ~0.1 µM
[2]; A2780 cells
  IC50: ~0.1 µM
[2]; MDA-MB-468 cells
  IC50: ~0.1 µM
[2]; Sk-mel-28 cells
  IC50: ~0.1 µM
[3]; COLO 205, Colo205 cells
  IC50: ~1 µM
[3]; HCT-116, HCT116 cells
  IC50: ~3 µM
[3]; RPMI-8226, RPMI8226 cells
  IC50: > 1 µM
[3]; A549 cells
  IC50: > 1 µM
[3]; A2780 cells
  IC50: ~1 µM
[3]; MDA-MB-435 cells
  IC50: ~0.5 µM
[3]; MDA-MB-453 cells
  IC50: ~1 µM
[3]; Raji cells
  IC50: > 1 µM
[4]; A2780, 1 h, A2780 cells
  IC50: ~0.5 µM
[4]; HCT-116, 1 h, HCT116 cells
  IC50: ~5 µM
[4]; MDA-MB-435, 1 h, MDA-MB-435 cells
  IC50: ~3 µM
[4]; RPMI-8226, 1 h, RPMI8226 cells
  IC50: ~5 µM
[4]; SK-MEL-28, 1 h, Sk-mel-28 cells
  IC50: ~3 µM
HCT116
  IC50: ~0.1 µM
Sk-mel-28
  IC50: ~0.3 µM
Colo205
  IC50: ~0.1 µM
MDA-MB-468
  IC50: ~0.3 µM
H460 NSCLC; 32 [30] mg/kg po qdx10, N=10
  Toxic Mortality: 0
H460 NSCLC; 32 [30] mg/kg po qdx10
  Max % TGI (d): 30.7 (13) %
H460 NSCLC; 63 [59] mg/kg po qdx10
  LCK ± CI (95%) (Td: 2.6 d): 0.48 ± 0.15 and 0.48
  Max % TGI (d): 43.1 (13) %
H460 NSCLC; 63 [59] mg/kg po qdx10, N=10
  Toxic Mortality: 0
H460 NSCLC; 95 [89] mg/kg po qdx10
  LCK ± CI (95%) (Td: 2.6 d): 0.97 ± 0.25 and 0.97
  Toxic Mortality: 2/10
  Max % TGI (d): 57.1 (13) %
[5]; HCT116, 31.6 [29.5] mg/kg po qdx10
  LCK ± CI (95%) (Td: 6.8 d): 0.21 ± 0.08 and 0.21
[5]; HCT116, 31.6 [29.5] mg/kg po qdx10, day 32
  Max % TGI (d): 32.7 (32) %
[5]; HCT116, 63.3 [59.1] mg/kg po qdx10
  LCK ± CI (95%) (Td: 6.8 d): 0.51 ± 0.17 and 0.51
[5]; HCT116, 63.3 [59.1] mg/kg po qdx10, day 16
  Max % BW Loss (d): 3.2 (16) %
[5]; HCT116, 63.3 [59.1] mg/kg po qdx10, day 32
  Max % TGI (d): 58.5 (32) %
[5]; HCT116, 95 [89] mg/kg po qdx10
  LCK ± CI (95%) (Td: 6.8 d): 0.60 ± 0.17 and 0.60
  Toxic Mortality: 1/10
[5]; HCT116, 95 [89] mg/kg po qdx10, day 20
  Max % TGI (d): 68.4 (20) %
[5]; mouse, in vivo, po
  Max % BW Loss (d): 10.2 (16) %
